These results are taken from patent publication US6337348B1, “Oxy-vanadium (iv) complexes having spermicidal activity” (Parker Hughes Institute, priority 1998, dated 2002).

pEC50: −log10 of the molar value.

For assay [1], the system named is human sperm. The experiment in a line: Flow cytometric quantitation of sperm acrosome reaction (anti-CD46 mAb binding). As to conditions: tested at 100 μM, 3 hours, 37° C., mean of two experiments. It counts as cell-based. As for the experimental part:
In experiments designed to assess the comparative effects of oxovanadium (IV) complexes and N-9 on sperm acrosome reaction, motile fractions of sperm (10^7/ml) prepared from a single donor were incubated in 1 ml of BWW−0.3% BSA in the presence of 100 μM each of the vanadocene complexes, VO(phen), VO(phen)2, VO(Me2—phen), VO(Me2—phen)2, VO(Cl—phen), VO(Cl—phen)2, VO(bipy), VO(bipy)2, VO(Me2—bipy), VO(Me2—bipy)2, and VO(Br,OH—acph)2 in 0.1% DMSO, N-9, or DMSO (0.1%) alone at 37° C. After 3 hours, 5 μg/ml of purified, phycoerythrin (PE)-conjugated murine anti-CD46 monoclonal antibody (mAb; clone 122-2; Research Diagnostics, Flanders, N.J.) was added and the sperm suspensions incubated for an additional 30 minutes. The suspensions was washed in Tyrode's salt solution (Sigma) containing 1% BSA (1% TBSA) and the percentage of CD46-positive sperm were analyzed by flow cytometry using a FACS Vantage flow cytometer (Becton Dickinson, Mountain View, Calif.), as described previously (DeCruz et al., 1996, Biol Reprod. 54:1217-1228; DeCruz et al., 1992, Fertil. Seril., 58:633-636). Two separate experiments were performed to quantitate acrosomal loss following exposure of sperm to oxovanadium (IV) complexes.
On the technique in general: Flow cytometry measures light scatter and fluorescence of single cells or particles in a stream.

For assay [2], the system named is human sperm. The assay is described as follows: Sperm immobilization assay (SIA), motility by CASA. As to conditions: read-out: EC50 (concentration that decreases the proportion of motile sperm by 50%); 3 hours incubation at 37° C., BWW-0.3% BSA, serial 2-fold dilutions 250 μM to 1.9 μM, mean of two experiments. It counts as cell-based. As for the experimental part:
To evaluate the spermicidal effects of complexes of oxovanadium (IV), VO(phen), VO(phen)2, VO(Me2—phen), VO(Me2—phen)2, VO(Cl—phen), VO(Cl—phen)2], VO(bipy), VO(bipy)2, VO(Me2—bipy), VO(Me2—bipy)2, and VO(Br,OH—acph)2, a highly motile fraction of pooled donor sperm (N=5) was prepared by discontinuous (90−45%). Percoll gradient (Conception Technologies, San Diego, Calif.) centrifugation and the “swim-up” method as described previously (Aitken et al., 1989, Biol. Reprod. 40:183-197). All donor specimens were obtained after informed consent and in compliance with the guidelines of the Hughes Institutional Review Board. Motile sperm (≳10×10^6/ml) were suspended in 1 ml of Biggers, Whitten, and Whittingham's medium (BWW) containing 0.3% BSA (fraction V; Sigma Chemical Co., St. Louis, Mo.) in the presence and absence of serial 2-fold dilutions of test substance (250 μM−1.9 μM) in 0.25% dimethyl sulfoxide (DMSO). For each experiment, fresh stock solutions (100 mM) of vanadium compounds were prepared in DMSO. A corresponding volume of DMSO (0.25%) was added to control sperm suspension. After 3 hours of incubation at 37° C., the percentage of motile sperm was evaluated by computer-assisted sperm motion analysis (CASA) as described previously (Aitken et al., 1989, Supra). The percentages of motilities were compared with those of sham-treated control suspensions of motile sperm.
For CASA, 4 μl each of sperm suspension was loaded into two 20 μm Microcell chambers placed onto a counting chamber at 37° C. At least 5-8 fields per chamber were scanned for analysis using a Hamilton Thorne Integrated Visual Optical System (IVOS) version 10 instrument (Hamilton Thorne Research Inc., Danvers, Mass.). Each field was recorded for 30 seconds. The Hamilton Thorne computer calibrations were set at 30 frames at a frame rate of 30 images/seconds. Other settings were as follows: minimum contrast 8; minimum size 6; low-size gate, 1.0; high-size gate,2.9; low-intensity gate, 0.6; high-intensity gate, 1.4; phase-contrast illumination; low path velocity at 10 μm/seconds and threshold straightness at 80%; magnification factor, 1.95. The performance of the analyzer was periodically checked using the playback function.
Results for the various numerical sperm functional parameters are presented as mean±standard deviation (SD) values. Comparison between oxovanadium (IV) complex-treated and control sperm relative to sperm motility parameters and apoptosis were performed using paired, two-tailed Student's T-test. A p value of <0.05 was considered significant.

Regarding nonoxynol-9 [N-9, reference compound], the “Anti-CD46 positive sperm (%)” value with human sperm [1] stood at 86%. Further, in the assay on human sperm [2], the pEC50 was 4.11.
